For data set [1], the target named is T1, reverse transcriptase of Rous sarcoma virus (Rous sarcoma virus - Prague C, UniProt P03354).
T1 construct: alpha/beta heterodimer cut from Gag-Pol polyprotein; 3H-TTP incorporation
Nature of the data set: Inhibition of reverse transcriptase activity in RSV particles (3H-thymidine triphosphate incorporation). Particulars: for inhibition at 400 µg/mL: 400 μg/ml., read-out: Percent Inhibition. In kind it is biochemical. As for the experimental part: Inhibition was directly related to drug concentration. […] Reverse transcriptase activities were measured from the incorporation of ^3 H-thymidine triphosphate into trichloroacetic acid insoluble counts according to a published method (Nature, 227, 563 (1970). The drug was dissolved in dimethylsulfoxide at a concentration of 10 mg./ml. ##SPC3##
Degrees of the inhibition are listed below in Table 1.

For data set [2], the system named is Rous sarcoma virus. Nature of the data set: Mortality of chicks infected intra-abdominally with Rous sarcoma virus. The data set is classed as in vivo, chickens. Particulars: for Probability (Fisher's exact probability for proportions): Virus + Drug I vs Virus; for Alive / Dead: Virus + Drug I, 200 mg./kg. by gavage every other day, 25 birds per group. The text has this:
(§1) To test the effectiveness of the present compounds, 12-day-old Cofal negative chicks were used. The chicks were purchased from SPAFA as 8-day-old embryonated eggs for the tests and comparison of the effectiveness of the inhibitors of the present invention. The chicks were divided into four groups of 25 birds per group:
(§2) Group 1 - Drug I control (9-0-methyloximinyl erythromycin A;
Group 2 - Drug I + Rous sarcoma virus (RSV);
Group 3 - Rous sarcoma virus (infection control);
Group 4 - Normal control (sham media)
(§3) The medication with the virus and drug combinations was started by gavage two days before the chicks were infected with the virus. The chickens treated with Drug I, 9-0-methyloximinyl erythromycin A, received 200 mg./kg. every other day for the entire 35 days of the experiment. Each week the chickens were weighed and the drug level was adjusted to accommodate the new weight.
On the third day the chickens in Groups 2 and 3 were infected intra-abdominally with Rous sarcoma virus (RSV). The inoculum received by each bird was 0.2 ml. and contained approximately 100,000 viral particles. Group 4 received a sham inoculation of 0.2 ml. of sterile tissue culture media.
(§4) The chickens were observed daily for the 35 days that the experiment was allowed to continue.
(§5) On the last day, the 35th day, all surviving chickens were sacrificed, weighed and autopsied.
The results of the experiment are provided in Table 3 which provides the following results: "Statistical Evaluation of Mortality of the Chickens".

Data set [3] concerns Rous sarcoma virus. Briefly: Blocking of transformation (focus formation) of chick embryonic fibroblasts by Rous sarcoma virus in tissue culture. In kind it is cell-based. The protocol:
In tissue culture, the effect of 9-0-methyloximinyl erythromycin A on the blocking of transformation of chick embryonic fibroblasts by Rous sarcoma virus is shown in Table 2. […] The assay was carried out according to a published method (J. Gen. Virol. I, 85 (1970).

The nature of data set [4]: Drug control group: mortality of uninfected chicks given drug. The data set is classed as in vivo, chickens. Particulars: Drug I control, 200 mg./kg. by gavage every other day, 25 birds.
Excerpt: as §1, §2, §3, §4, §5

Where [5] appears, read: period 4 after infection (period = 6 days).
Setting [6] is: period 5 after infection (period = 6 days).
The mark [7] stands for this setting: period 6 after infection (period = 6 days).

T1 sequence (P03354 709-1567): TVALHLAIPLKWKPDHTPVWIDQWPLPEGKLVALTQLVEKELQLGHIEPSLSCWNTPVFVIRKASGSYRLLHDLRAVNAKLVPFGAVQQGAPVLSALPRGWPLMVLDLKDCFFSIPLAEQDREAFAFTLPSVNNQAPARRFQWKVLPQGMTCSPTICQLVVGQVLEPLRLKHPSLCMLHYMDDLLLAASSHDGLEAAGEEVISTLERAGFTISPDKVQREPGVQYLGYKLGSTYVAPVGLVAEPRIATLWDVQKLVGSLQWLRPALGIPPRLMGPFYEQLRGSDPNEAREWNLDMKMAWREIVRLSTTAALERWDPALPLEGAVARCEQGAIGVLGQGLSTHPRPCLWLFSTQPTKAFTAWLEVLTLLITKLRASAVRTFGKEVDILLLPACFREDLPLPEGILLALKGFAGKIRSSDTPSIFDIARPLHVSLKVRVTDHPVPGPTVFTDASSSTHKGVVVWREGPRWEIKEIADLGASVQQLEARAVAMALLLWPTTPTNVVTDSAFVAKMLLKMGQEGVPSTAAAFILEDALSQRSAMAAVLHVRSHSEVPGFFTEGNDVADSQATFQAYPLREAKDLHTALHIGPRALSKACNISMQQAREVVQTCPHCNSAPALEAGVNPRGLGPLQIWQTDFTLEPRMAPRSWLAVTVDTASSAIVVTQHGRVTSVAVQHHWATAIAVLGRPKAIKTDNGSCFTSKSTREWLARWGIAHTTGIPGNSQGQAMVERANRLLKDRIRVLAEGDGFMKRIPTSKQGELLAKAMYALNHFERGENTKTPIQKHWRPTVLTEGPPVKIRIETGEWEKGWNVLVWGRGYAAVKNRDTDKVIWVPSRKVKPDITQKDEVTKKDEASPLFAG

Consider `CC[C@H]1OC(=O)[C@H](C)[C@@H](O[C@H]2C[C@@](C)(OC)[C@@H](O)[C@H](C)O2)[C@H](C)[C@@H](O[C@@H]2O[C@H](C)C[C@H](N(C)C)[C@H]2O)[C@](C)(O)C[C@@H](C)C(=NOCc2ccc(Cl)c(Cl)c2)[C@H](C)[C@@H](O)[C@H]1C` [9-O-(3,4-dichlorobenzyloximinyl) erythromycin B], for which, in data set [1], the inhibition (commonly the change of the read-out against control, counted positive when it falls) at 400 µg/mL was 69%.

In the case of `CCON=C1[C@H](C)C[C@@](C)(O)[C@H](O[C@@H]2O[C@H](C)C[C@H](N(C)C)[C@H]2O)[C@@H](C)[C@H](O[C@H]2C[C@@](C)(OC)[C@@H](O)[C@H](C)O2)[C@@H](C)C(=O)O[C@H](CC)[C@@](C)(O)[C@H](O)[C@H]1C` [9-O-ethyloximinyl erythromycin A], in data set [1], the inhibition at 400 µg/mL turned out to be 52%.

On to `CC[C@H]1OC(=O)[C@H](C)[C@@H](O[C@H]2C[C@@](C)(OC)[C@@H](O)[C@H](C)O2)[C@H](C)[C@@H](O[C@@H]2O[C@H](C)C[C@H](N(C)C)[C@H]2O)[C@](C)(O)C[C@@H](C)C(=NOC)[C@H](C)[C@@H](O)[C@]1(C)O` [9-O-methyloximinyl erythromycin A], for which the “tumors in survivors at sacrifice and autopsy” value with Rous sarcoma virus [2] (RSV-infected birds that received Drug I 200 mg./kg. every other day, 35th day) is given as “had tumors in evidence”. For the same molecule, the “Probability (Fisher's exact probability for proportions)” value with Rous sarcoma virus [2] (period 4 after infection) is given as “.02”; in the data set on Rous sarcoma virus [2] (period 5 after infection), “.006”; in the data set with Rous sarcoma virus [2] (period 6 after infection) it was “.036”. Moreover, the Alive stood at 18 in the data set with Rous sarcoma virus [2] (setting [5]); 13 in the data set on Rous sarcoma virus [2] (setting [6]); 8 in the data set on Rous sarcoma virus [2] (setting [7]); 25 in data set [4] (period 4 (period = 6 days)); 25 in data set [4] (period 5 (period = 6 days)); 25 in data set [4] (period 6 (period = 6 days)). Also, the Dead in the data set on Rous sarcoma virus [2] (setting [5]) is reported as 7; with Rous sarcoma virus [2] (setting [6]), 12; in the data set on Rous sarcoma virus [2] (setting [7]), 17; in data set [4] (period 4 (period = 6 days)), 0; in data set [4] (period 5 (period = 6 days)), 0; in data set [4] (period 6 (period = 6 days)), 0. Also, the inhibition at 400 µg/mL in data set [1] was 57%. Besides, the IC50 in data set [1] (RSV particles, drug dissolved in dimethylsulfoxide, read-out: Fifty percent inhibition of reverse transcriptase activity (converted)) was around 459 µM. In the data set on Rous sarcoma virus [3] (Rous sarcoma virus, Fibroblast, Drug Concentration 1 μg/ml), the inhibition at 1 µg/mL turned out to be 39%. The same molecule showed an inhibition at 5 µg/mL in the data set on Rous sarcoma virus [3] (Rous sarcoma virus, Fibroblast, Drug Concentration 5 μg/ml) of 53%. This molecule gave an inhibition at 10 µg/mL in the data set with Rous sarcoma virus [3] (Rous sarcoma virus, Fibroblast, Drug Concentration 10 μg/ml) of 95%. In addition, the “inhibition of focus formation” value in the data set with Rous sarcoma virus [3] (drug levels of 5-10 μg/ml) is “at least 50%”.

As to `CCCON=C1[C@H](C)C[C@@](C)(O)[C@H](O[C@@H]2O[C@H](C)C[C@H](N(C)C)[C@H]2O)[C@@H](C)[C@H](O[C@H]2C[C@@](C)(OC)[C@@H](O)[C@H](C)O2)[C@@H](C)C(=O)O[C@H](CC)[C@@](C)(O)[C@H](O)[C@H]1C` [9-O-propyloximinyl erythromycin A], the inhibition at 400 µg/mL in data set [1] is 47%.

The record behind these values is patent US3979511A, “Inhibitors of reverse transcriptase enzymes” (Abbott Laboratories, priority 1974, dated 1976).
